Source: US20250324971A1, “HERBICIDAL DERIVATIVES” (SYNGENTA CROP PROTECTION AG, priority 2022, published 2025)

Legend:
Assay in all cases: Post-Emergence Test (herbicidal, glasshouse pots)
Format in all cases: in vivo
Conditions in all cases: evaluated after 13 days
[1] = test system: Amaranthus palmeri (AMAPA)
Procedure: (§1) Seeds of a variety of test species are sown in standard soil in pots (Setaria faberi (SETFA), Ipomoea hederacea (IPOHE), Echinochloa crus-galli (ECHCG), (Amaranthus retoflexus (AMARE), Zea mays (ZEAMX), and Amaranthus palmeri (AMAPA)). After 8 days cultivation under controlled conditions in a glasshouse (at 24° C./16° C., day/night; 14 hours light; 65% humidity), the plants arm sprayed with an aqueous spray solution derived from the formulation of the technical active ingredient in acetone/water (50:50) solution containing 0.5% Tween 20 (polyoxyethylene sorbitan monolaurate, CAS RN 9005-84-5). Rate of application is shown in g/ha in the tables below. The test plants are then grown in a glasshouse under controlled conditions in a glasshouse (at 24° C./16° C., day/night; 14 hours light; 65% humidity) and watered twice daily. After 13 days the test is evaluated for the percentage damage caused to the plant. The biological activities are shown in the following table on a five-point scale (5=81-100%; 4=61-80%; 3=41-60%; 2=21-40%; 1=0-20%; -=not tested).

[2] = test system: Amaranthus retoflexus (AMARE)
Procedure: as §1

[3] = test system: Echinochloa crus-galli (ECHCG)
Procedure: as §1

[4] = test system: Ipomoea hederacea (IPOHE)
Procedure: as §1

Zea mays (ZEAMX) = test system: Zea mays (ZEAMX)
Procedure: as §1

SMILES | Post-Emergence Test AMAPA percentage damage (five-point scale) ([1]; rate 250 g/ha) | Post-Emergence Test AMARE percentage damage (five-point scale) ([2]; rate 250 g/ha) | Post-Emergence Test ECHCG percentage damage (five-point scale) ([3]; rate 250 g/ha) | Post-Emergence Test IPHOE percentage damage (five-point scale) ([4]; rate 250 g/ha) | Post-Emergence Test ZEAMX percentage damage (five-point scale) (Zea mays (ZEAMX); rate 250 g/ha) | Post-Emergence Test AMAPA percentage damage (five-point scale) ([1]; rate 1000 g/ha) | Post-Emergence Test AMARE percentage damage (five-point scale) ([2]; rate 1000 g/ha) | Post-Emergence Test ECHCG percentage damage (five-point scale) ([3]; rate 1000 g/ha) | Post-Emergence Test IPHOE percentage damage (five-point scale) ([4]; rate 1000 g/ha) | Post-Emergence Test ZEAMX percentage damage (five-point scale) (Zea mays (ZEAMX); rate 1000 g/ha)
CCn1c(Nc2ccccc2F)cc(=O)c(C(=O)O)c1-c1ccc(Cl)c(Cl)c1 [Compound 1, 2-(3,4-dichlorophenyl)-1-ethyl-6-(2-fluoroanilino)-4-oxo-pyridine-3-carboxylic acid] | 1 (1=0-20%) | 1 (1=0-20%) | 0 | 2 (2=21-40%) | 0 |  |  |  |  | 
CCn1c(OC)cc(=O)c(C(=O)O)c1-c1ccc(Cl)c(Cl)c1 [Compound 5, 2-(3,4-dichlorophenyl)-1-ethyl-6-methoxy-4-oxo-pyridine-3-carboxylic acid] | 0 | 0 | 3 (3=41-60%) | 3 (3=41-60%) | 2 (2=21-40%) |  |  |  |  | 
CCn1c(Oc2cc(Cl)cc(Cl)c2)cc(=O)c(C(=O)O)c1-c1ccc(Cl)c(Cl)c1 [Compound 16, 6-(3,5-dichlorophenoxy)-2-(3,4-dichlorophenyl)-1-ethyl-4-oxo-pyridine-3-carboxylic acid] |  |  |  |  |  | 1 (1=0-20%) | 2 (2=21-40%) | 1 (1=0-20%) | 2 (2=21-40%) | 1 (1=0-20%)
CCn1c(Oc2ccc(Cl)cc2Cl)cc(=O)c(C(=O)O)c1-c1ccc(Cl)c(Cl)c1 [Compound 24, 6-(2,4-dichlorophenoxy)-2-(3,4-dichlorophenyl)-1-ethyl-4-oxo-pyridine-3-carboxylic acid] |  |  |  |  |  | 1 (1=0-20%) | 1 (1=0-20%) | 0 | 1 (1=0-20%) | 1 (1=0-20%)
CCn1c(Oc2cc(Cl)cc(OC)c2)cc(=O)c(C(=O)O)c1-c1ccc(Cl)c(Cl)c1 [Compound 25, 6-(3-chloro-5-methoxy-phenoxy)-2-(3,4-dichlorophenyl)-1-ethyl-4-oxo-pyridine-3-carboxylic acid] |  |  |  |  |  | 1 (1=0-20%) | 1 (1=0-20%) | 0 | 1 (1=0-20%) | 0
CCn1c(Nc2ccc(Cl)cc2F)cc(=O)c(C(=O)O)c1-c1ccc(Cl)c(Cl)c1 [Compound 29, 6-(4-chloro-2-fluoro-anilino)-2-(3,4-dichlorophenyl)-1-ethyl-4-oxo-pyridine-3-carboxylic acid] |  |  |  |  |  | 2 (2=21-40%) | 2 (2=21-40%) | 0 | 3 (3=41-60%) | 0
CCn1c(Nc2cccc(Cl)n2)cc(=O)c(C(=O)O)c1-c1ccc(Cl)c(Cl)c1 [Compound 30, 6-[(6-chloro-2-pyridyl)amino]-2-(3,4-dichlorophenyl)-1-ethyl-4-oxo-pyridine-3-carboxylic acid] |  |  |  |  |  | 2 (2=21-40%) | 2 (2=21-40%) | 0 | 2 (2=21-40%) | 1 (1=0-20%)
